{"source": "patent US20100292205A1", "about": "“Pyrimidone Compounds As GSK-3 Inhibitors” (PFIZER INC., priority 2006, published 2010)", "data": [{"biological_target": "T1, Recombinant human GSK3β (Homo sapiens, UniProt P49841)", "T1 construct": "His-tag; made in house; host or cells: Sf9 insect cells / baculovirus", "T1 sequence (P49841 whole entry)": "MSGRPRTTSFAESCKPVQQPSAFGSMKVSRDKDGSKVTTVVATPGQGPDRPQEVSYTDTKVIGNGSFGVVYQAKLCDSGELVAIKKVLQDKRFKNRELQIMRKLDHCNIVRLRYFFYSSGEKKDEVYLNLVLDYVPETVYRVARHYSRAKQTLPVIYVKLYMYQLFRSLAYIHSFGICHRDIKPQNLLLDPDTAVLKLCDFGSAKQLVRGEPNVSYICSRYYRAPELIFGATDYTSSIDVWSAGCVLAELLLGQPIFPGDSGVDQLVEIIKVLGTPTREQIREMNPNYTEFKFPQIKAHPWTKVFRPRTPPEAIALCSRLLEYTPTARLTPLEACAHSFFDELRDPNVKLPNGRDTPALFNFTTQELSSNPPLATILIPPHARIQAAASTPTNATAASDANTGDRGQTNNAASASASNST", "experiment": "GSK-3β (Glycogen Synthase Kinase) cell free enzyme assay", "assay_type": "biochemical", "conditions": "1 μM; Examples 236-262; read-out: Percent inhibition at 1 μM", "in_short": "(§1)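 Recombinant human GSK3β, expressed in SF9/baculovirus cells and His-tag purified on Ni-NTA Superflow, was preincubated with test agent for 30 minutes at room temperature. Substrate mix was then added to start the reaction in 8 mM MOPS (pH 7.0), 10 mM magnesium acetate, 0.2 mM EDTA, 1 mM DTT, 2 uM cold ATP, 0.025 uCi/well [33P]ATP (120 uL) and 1.0 uM biotinylated peptide. Reactions ran at RT for 60 min.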", "units": {"inhibition at 1 µM": "%"}, "values": [{"smiles": "Cn1c(NC2CCN(Cc3ccccc3)C2)nc(-c2ccncc2)cc1=O", "note": "(stereo not shown) [Example 236, 2-[(1-Benzylpyrrolidin-3-yl)amino]-3-methyl-6-pyridin-4-ylpyrimidin-4(3H)-one]", "inhibition at 1 µM": 63}, {"smiles": "Cn1c(NC2CCCN(Cc3ccccc3)CC2)nc(-c2ccncc2)cc1=O", "note": "(stereo not shown) [Example 237, 2-[(1-Benzylazepan-4-yl)amino]-3-methyl-6-pyridin-4-ylpyrimidin-4(3H)-one]", "inhibition at 1 µM": 84}, {"smiles": "CN1[C@@H]2CC[C@H]1CN(c1nc(-c3ccncc3)cc(=O)n1C)C2", "note": "[Example 238, 3-Methyl-2-[(1R,5S)-8-methyl-38-diazabicyclo[3.2.1]oct-3-yl]-6-pyridin-4-ylpyrimidin-4(3H)-one]", "inhibition at 1 µM": 47}, {"smiles": "CN1C[C@H]2CC[C@@H](C1)N2c1nc(-c2ccncc2)cc(=O)n1C", "note": "[Example 239, 3-Methyl-2-[(1R,5S)-3-methyl-38-diazabicyclo[3.2.1]oct-8-yl]-6-pyridin-4-ylpyrimidin-4(3H)-one]", "inhibition at 1 µM": 57}, {"smiles": "CN1CCC(Nc2nc(-c3ccncc3)cc(=O)n2C)C1", "note": "(stereo not shown) [Example 240, 3-Methyl-2-[(1-methylpyrrolidin-3-yl)amino]-6-pyridin-4-ylpyrimidin-4(3H)-one]", "inhibition at 1 µM": 49}, {"smiles": "CN1CCCC(Nc2nc(-c3ccncc3)cc(=O)n2C)CC1", "note": "(stereo not shown) [Example 241, 3-Methyl-2-[(1-methylazepan-4-yl)amino]-6-pyridin-4-ylpyrimidin-4(3H)-one]", "inhibition at 1 µM": 72}, {"smiles": "CN1C[C@H](Nc2nc(-c3ccncc3)cc(=O)n2C)[C@@H](F)C1", "note": "[Example 242, 2-{[(3S,4S)-4-Fluoro-1-methylpyrrolidin-3-yl]amino}-3-methyl-6-pyridin-4-ylpyrimidin-4(3H)-one]", "inhibition at 1 µM": 43}, {"smiles": "CN1CCCC(N(C)c2nc(-c3ccncc3)cc(=O)n2C)CC1", "note": "(stereo not shown) [Example 243, 3-Methyl-2-[methyl(1-methylazepan-4-yl)amino]-6-pyridin-4-ylpyrimidin-4(3H)-one]", "inhibition at 1 µM": 60}, {"smiles": "CCN(c1nc(-c2ccncc2)cc(=O)n1C)C1CCN(C)C1", "note": "(stereo not shown) [Example 244, 2-[ethyl(1-Methylpyrrolidin-3-yl)amino]-3-methyl-6-pyridin-4-ylpyrimidin-4(3H)-one]", "inhibition at 1 µM": 60}, {"smiles": "CN1CCC(N(C)c2nc(-c3ccncc3)cc(=O)n2C)C1", "note": "(stereo not shown) [Example 245, 3-Methyl-2-[methyl(1-methylpyrrolidin-3-yl)amino]-6-pyridin-4-ylpyrimidin-4(3H)-one]", "inhibition at 1 µM": 52}, {"smiles": "CN1C[C@H](F)[C@H](Nc2nc(-c3ccncc3)cc(=O)n2C)C1", "note": "[Example 246, 2-{[(3R,4S)-4-Fluoro-1-methylpyrrolidin-3-yl]amino}-3-methyl-6-pyridin-4-ylpyrimidin-4(3H)-one]", "inhibition at 1 µM": 67}, {"smiles": "CCN(c1nc(-c2ccncc2)cc(=O)n1C)C1CCCN(C)CC1", "note": "(stereo not shown) [Example 247, 2-[Ethyl(1-methylazepan-4-yl)amino]-3-methyl-6-pyridin-4-ylpyrimidin-4(3H)-one]", "inhibition at 1 µM": 78}, {"smiles": "CCN(c1nc(-c2ccncc2)cc(=O)n1C)C1CCN(C)CC1", "note": "[Example 248, 2-[Ethyl(1-methylpiperidin-4-yl)amino]-3-methyl-6-pyridin-4-ylpyrimidin-4(3H)-one]", "inhibition at 1 µM": 39}, {"smiles": "CN1CC(CNc2nc(-c3ccncc3)cc(=O)n2C)C1", "note": "[Example 249, 3-Methyl-2-{[(1-methylazetidin-3-yl)methyl]amino}-6-pyridin-4-ylpyrimidin-4(3H)-one]", "inhibition at 1 µM": 33}, {"smiles": "Cn1c(N2CC[C@@H]3CN(Cc4ccccc4)C[C@@H]32)nc(-c2ccncc2)cc1=O", "note": "[Example 251, 2-[(3a,R6,aR)-5-Benzylhexahydropyrro-lo[34-b]pyrrol-1(2H)-yl]-3-methyl-6-pyridin-4-ylpyrimidin-4(3H)-one]", "inhibition at 1 µM": 47}, {"smiles": "Cn1c(NC2CCCCN(Cc3ccccc3)C2)nc(-c2ccncc2)cc1=O", "note": "(stereo not shown) [Example 252, 2-[(1-Benzylazepan-3-yl)amino]-3-methyl-6-pyridin-4-ylpyrimidin-4(3H)-one]", "inhibition at 1 µM": 74}, {"smiles": "Cn1c(N[C@@H]2CN(Cc3ccccc3)C[C@@H]2F)nc(-c2ccncc2)cc1=O", "note": "[Example 253, 2-{[(3R,4S)-1-Benzyl-4-fluoropyrrolidin-3-yl]amino}-3-methyl-6-pyridin-4-ylpyrimidin-4(3H)-one]", "inhibition at 1 µM": 91}, {"smiles": "CN(c1nc(-c2ccncc2)cc(=O)n1C)[C@H]1CC[C@H]2N(Cc3ccccc3)CC[C@@]2(C)C1", "note": "[Example 254, 2-{[(3a,S5,S7,aR)-1-Benzyl-3a-methyloctahydro-1H-indol-5-yl](methyl)amino}-3-methyl-6-pyridin-4-ylpyrimidin-4(3H)-one]", "inhibition at 1 µM": 47}, {"smiles": "CN(c1nc(-c2ccncc2)cc(=O)n1C)C1CCCN(Cc2ccccc2)CC1", "note": "(stereo not shown) [Example 255, 2-[(1-Benzylazepan-4-yl)(methyl)amino]-3-methyl-6-pyridin-4-ylpyrimidin-4(3H)-one]", "inhibition at 1 µM": 76}, {"smiles": "CN(c1nc(-c2ccncc2)cc(=O)n1C)C1CCN(Cc2ccccc2)C1", "note": "(stereo not shown) [Example 256, 2-[(1-Benzylpyrrolidin-3-yl)(methyl)amino]-3-methyl-6-pyridin-4-ylpyrimidin-4(3H)-one]", "inhibition at 1 µM": 83}, {"smiles": "CCN(c1nc(-c2ccncc2)cc(=O)n1C)C1CCN(Cc2ccccc2)C1", "note": "(stereo not shown) [Example 257, 2-[(1-Benzylpyrrolidin-3-yl)(ethyl)amino]-3-methyl-6-pyridin-4-ylpyrimidin-4(3H)-one]", "inhibition at 1 µM": 71}, {"smiles": "CN(c1nc(-c2ccncc2)cc(=O)n1C)[C@@H]1CC[C@H]2N(Cc3ccccc3)CC[C@@]2(C)C1", "note": "[Example 258, 2-{[(3a,S5,R7,aR)-1-Benzyl-3a-methyloctahydro-1H-indol-5-yl](methyl)amino}-3-methyl-6-pyridin-4-ylpyrimidin-4(3H)-one]", "inhibition at 1 µM": 43}, {"smiles": "CCN(c1nc(-c2ccncc2)cc(=O)n1C)C1CCCN(Cc2ccccc2)CC1", "note": "(stereo not shown) [Example 259, 2-[(1-Benzylazepan-4-yl)(ethyl)amino]-3-methyl-6-pyridin-4-ylpyrimidin-4(3H)-one]", "inhibition at 1 µM": 83}, {"smiles": "CCN(c1nc(-c2ccncc2)cc(=O)n1C)C1CCN(Cc2ccccc2)CC1", "note": "[Example 260, 2-[(1-Benzylpiperidin-4-yl)(ethyl)amino]-3′-methyl-6-pyridin-4-ylpyrimidin-4(3H)-one]", "inhibition at 1 µM": 44}]}, {"biological_target": "T1, Recombinant human GSK3β", "experiment": "GSK-3β (Glycogen Synthase Kinase) cell free enzyme assay", "assay_type": "biochemical", "conditions": "cell free enzyme assay; Examples 222-234", "in_short": "as §1", "units": {"IC50": "nM"}, "values": [{"smiles": "CCOC(=O)N1CCCC(N(C)c2nc(-c3ccncn3)cc(=O)n2C)C1", "note": "(stereo not shown) [Example 222, Ethyl 3-[methyl(1-methyl-6-oxo-1,6-dihydro-4,4′-bipyrimidin-2-yl)amino]piperidine-1-carboxylate]", "IC50": 1.14}, {"smiles": "COC(=O)N1CCCC(N(C)c2nc(-c3ccncn3)cc(=O)n2C)C1", "note": "(stereo not shown) [Example 223, Methyl 3-[methyl(1-methyl-6-oxo-1,6-dihydro-4,4′-bipyrimidin-2-yl)amino]piperidine-1-carboxylate]", "IC50": 1.04}, {"smiles": "CCN(C[C@@H]1CCCN1C(=O)OC)c1nc(-c2ccncn2)cc(=O)n1C", "note": "[Example 224, Methyl (2S)-2-{[ethyl(1-methyl-6-oxo-1,6-dihydro-4,4′-bipyrimidin-2-yl)amino]methyl}pyrrolidine-1-carboxylate]", "IC50": 1.11}, {"smiles": "CCOC(=O)N1CCC[C@H]1CN(CC)c1nc(-c2ccncn2)cc(=O)n1C", "note": "[Example 225, Ethyl (2S)-2-{[ethyl(1-methyl-6-oxo-1,6-dihydro-4,4′-bipyrimidin-2-yl)amino]methyl}pyrrolidine-1-carboxylate]", "IC50": 0.755}, {"smiles": "CCN(C[C@H]1CCCN1C(=O)OC)c1nc(-c2ccncn2)cc(=O)n1C", "note": "[Example 226, Methyl (2R)-2-{[ethyl(1-methyl-6-oxo-1,6-dihydro-4,4′-bipyrimidin-2-yl)amino]methyl}pyrrolidine-1-carboxylate]", "IC50": 1}, {"smiles": "CCOC(=O)N1CCC[C@@H]1CN(CC)c1nc(-c2ccncn2)cc(=O)n1C", "note": "[Example 227, Ethyl (2R)-2-{[ethyl(1-methyl-6-oxo-1,6-dihydro-4,4′-bipyrimidin-2-yl)amino]methyl}pyrrolidine-1-carboxylate]", "IC50": 0.825}, {"smiles": "COC(=O)N1CCC[C@@H](Nc2nc(-c3ccncn3)cc(=O)n2C)C1", "note": "[Example 228, Methyl (3R)-3-[(1-methyl-6-oxo-1,6-dihydro-4,4′-bipyrimidin-2-yl)amino]piperidine-1-carboxylate]", "IC50": 0.994}, {"smiles": "CCOC(=O)N1CCC[C@@H](Nc2nc(-c3ccncn3)cc(=O)n2C)C1", "note": "[Example 229, Ethyl (3R)-3-[(1-methyl-6-oxo-1,6-dihydro-4,4′-bipyrimidin-2-yl)amino]piperidine-1-carboxylate]", "IC50": 1.99}, {"smiles": "CCOC(=O)N1CCC[C@@H](N(C)c2nc(-c3ccncn3)cc(=O)n2C)C1", "note": "[Example 230, Ethyl (3R)-3-[methyl(1-methyl-6-oxo-1,6-dihydro-4,4′-bipyrimidin-2-yl)amino]piperidine-1-carboxylate]", "IC50": 0.95}, {"smiles": "CCOC(=O)N1CCC[C@@H](N(C)c2nc(-c3ccncc3)cc(=O)n2C)C1", "note": "[Example 231, Ethyl (3R)-3-[methyl(1-methyl-6-oxo-4-pyridin-4-yl-1,6-dihydropyrimidin-2-yl)amino]piperidine-1-carboxylate]", "IC50": 1.15}, {"smiles": "COC(=O)N1CCC[C@@H](Nc2nc(-c3ccncc3)cc(=O)n2C)C1", "note": "[Example 232, Methyl (3R)-3-[(1-methyl-6-oxo-4-pyridin-4-yl-1,6-dihydropyrimidin-2-yl)amino]piperidine-1-carboxylate]", "IC50": 0.854}, {"smiles": "Cn1c(N[C@@H]2CCCN(C(=O)OCc3ccncc3)C2)nc(-c2ccncn2)cc1=O", "note": "[Example 233, Pyridin-4-ylmethyl (3R)-3-[(1-methyl-6-oxo-1,6-dihydro-4,4′-bipyrimidin-2-yl)amino]piperidine-1-carboxylate]", "IC50": 5}, {"smiles": "CN(c1nc(-c2ccncn2)cc(=O)n1C)[C@@H]1CCCN(C(=O)C2CC2)C1", "note": "[Example 234, 2-{[(3R)-1-(Cyclopropylcarbonyl)piperi-din-3-yl](methyl)amino}-1-methyl-4,4′-bipyrimidin-6(1H)-one]", "IC50": 1.68}]}]}
